The subject of one data set is Liver. The data set is described as follows: Covalent protein binding in rat liver at 25 to 75 […], po using radio-labeled compound measured at 6 hrs by scintillation counting method. Type of data set: ADME, organism-based. Particulars: in vivo.
For a further data set, the system named is Plasma. Kind of data set: Covalent protein binding in rat plasma at 25 to 75 […], po using radio-labeled compound measured at 6 hrs by scintillation counting method. It counts as ADME, organism-based.
Data set [1] can be described thus: Drug level in dog liver at 5 mg/kg, po measured at 24 hrs by RP-HPLC method. Type of data set: ADME, organism-based, Canis lupus familiaris. As to conditions: read-out: Drug uptake.
Data set [2] is described as follows: Drug level in rat liver at 25 mg/kg, po measured at 24 hrs by RP-HPLC method. Type of data set: ADME, organism-based. Particulars: read-out: Drug uptake.

The structures appear in SMILES notation.

Take `C=C[C@@H]1C[C@]1(NC(=O)[C@@H]1C[C@@H]2CN1C(=O)[C@H](C(C)(C)C)NC(=O)O[C@@H]1CCC[C@H]1CCCCCc1nc3ccc(OC)cc3cc1O2)C(=O)NS(=O)(=O)C1CC1`: the PB in the data set with Liver was 24 pmolequiv/mg; in the data set on Plasma, 6 pmolequiv/mg.
For the compound `C=C[C@@H]1C[C@]1(NC(=O)[C@@H]1C[C@@H]2CN1C(=O)[C@H](C(C)(C)C)NC(=O)O[C@@H]1C[C@H]1CCCCCc1nc3ccc(OC)cc3nc1O2)C(=O)[N-]S(=O)(=O)C1CC1.[K+]`, the PB in the data set on Liver and in the data set on Plasma was 3 pmolequiv/mg each time. In addition, the concentration at 24 h was determined as 120 µM in data set [1] and 27.9 µM in data set [2].
With `C=C[C@@H]1C[C@]1(NC(=O)[C@@H]1C[C@@H]2CN1C(=O)[C@H](C1CCCC1)NC(=O)O[C@@H]1CCC[C@H]1CCCCCc1nc3ccccc3cc1O2)C(=O)NS(=O)(=O)C1CC1`, the PB amounted to 63 pmolequiv/mg with Liver and 6 pmolequiv/mg in the data set on Plasma.
For `C=C[C@@H]1C[C@]1(NC(=O)[C@@H]1C[C@@H]2CN1C(=O)[C@H](C(C)(C)C)NC(=O)O[C@@H]1C[C@H]1CCCCCc1nc3ccc(OC)cc3cc1O2)C(=O)[N-]S(=O)(=O)C1CC1.[K+]`, the concentration at 24 h amounted to 3.3 µM in data set [1] and 8.5 µM in data set [2].
For the compound `C=C[C@@H]1C[C@]1(NC(=O)[C@@H]1C[C@@H]2CN1C(=O)[C@H](C1CCCC1)NC(=O)O[C@@H]1CCC[C@H]1CCCCCc1nc3ccccc3nc1O2)C(=O)NS(=O)(=O)C1CC1`, the PB in the data set on Liver amounted to 38 pmolequiv/mg; in the data set with Plasma, 15 pmolequiv/mg.
